ChEMBL document CHEMBL1833852, “Design, synthesis, and X-ray crystallographic analysis of a novel class of HIV-1 protease inhibitors” (J Med Chem, 2011)
Calls of active or inactive are those of the source. The calls are words filed in the database; no cut-off is given here.

Columns and labels:
Protease = Protease (Human immunodeficiency virus 1, UniProt Q9YQ12); assay: (§1) Inhibition of Human immunodeficiency virus 1 protease activity after 60 mins by HPLC analysis
[1] = target: Protease (Human immunodeficiency virus 1) (UniProt Q9YQ12); assay: as §1
Chain of Protease (Human immunodeficiency virus 1) (Q9YQ12 as listed by the source): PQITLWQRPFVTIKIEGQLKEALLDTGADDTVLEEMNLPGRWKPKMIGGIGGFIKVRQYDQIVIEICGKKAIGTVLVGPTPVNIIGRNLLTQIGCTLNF

Chain of Protease (Q9YQ12 whole entry): as the sequence (Q9YQ12 as listed by the source) above

SMILES | Ki (Protease) | inhibition [1]
C[C@H]1Cc2ccc(C(F)(F)F)cc2S(=O)(=O)N(C[C@@H](O)[C@H](Cc2ccccc2)NC(=O)OC(C)(C)C)C1 | 100 nM | –
CC(C)(C)OC(=O)N[C@@H](Cc1ccccc1)[C@H](O)CN1CCCc2ccccc2S1(=O)=O | 470 nM | –
C[C@H]1Cc2ccccc2S(=O)(=O)N(CC(O)C(Cc2ccccc2)NC(=O)Oc2ccccc2)C1 (single isomer, unassigned) | 350 nM | –
CCOC(=O)NC(Cc1ccccc1)C(O)CN1C[C@@H](C)Cc2ccccc2S1(=O)=O (single isomer, unassigned) | 34 nM | –
O=C1N[C@@H](Cc2ccccc2)[C@@H](CN2CCCc3ccccc3S2(=O)=O)O1 | – | inactive
C[C@H]1Cc2cc(C(F)(F)F)ccc2S(=O)(=O)N(C[C@@H](O)[C@H](Cc2ccccc2)NC(=O)OC(C)(C)C)C1 | 186 nM | –
C[C@@H]1Cc2ccccc2S(=O)(=O)N(CC(O)C(Cc2ccccc2)NC(=O)OC(C)(C)C)C1 (single isomer, unassigned) | 1000 nM | –

Next, values leading:

Ki (Protease) | inhibition [1] | SMILES
29 nM | – | C[C@H]1Cc2ccccc2S(=O)(=O)N(CC(O)C(Cc2ccccc2)NC(=O)OC(C)(C)C)C1 (single isomer, unassigned)
30 nM | – | C[C@H]1Cc2cc(F)ccc2S(=O)(=O)N(CC(O)C(Cc2ccccc2)NC(=O)[C@@H]2CN(c3ccccc3)C(=O)O2)C1 (single isomer, unassigned)
27 nM | – | C=CCOC(=O)N[C@@H](Cc1ccccc1)[C@H](O)CN1C[C@@H](C)Cc2ccccc2S1(=O)=O
19 nM | – | COc1ccc2c(c1)C[C@H](C)CN(C[C@@H](O)[C@H](Cc1ccccc1)NC(=O)OC(C)(C)C)S2(=O)=O
